Tests used:
[1] = cited from earlier work
[2] = test system: dopamine transporter protein over the norepinephrine transporter protein; settings: selectivity for DAT over NET; cited from earlier work

Compound: CN1Cc2c(N)cccc2C(c2ccccc2)C1 (stereo not drawn) [Nomofensine®]
- side effect of long term administration [1]: fatal immune hemolytic anemia

Compound: CN1Cc2cc(-c3ccoc3)ccc2C(c2ccccc2)C1 (stereo not drawn)
- melting point: 188 to 189 °C (dec.)

Compound: COC(=O)C(c1ccccc1)C1CCCCN1 (stereo not drawn) [Methylphenidate]
- DAT/NET Ki ratio [2]: 0.1
